Data on 23 compounds can be found in US11028090B2 (Dong Wha Pharm. Co., Ltd., priority 2017, dated 2021).

Where two headings read alike, the source gives them in different places.

In experiment [1] the target is BRD4 (BD1+BD2) bromodomain (Homo sapiens (Human), UniProt O60885). Kind of experiment: BRD4 binding inhibition (AlphaScreen, GST-BRD4 vs tetraacetylated histone H4 peptide). The gist of the method:
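GST-BRD4 (BD1+BD2) and biotinylated tetraacetyl-histone H4 peptide, each at 100 nM in HEPES pH 7.4 buffer with BSA and DTT, were combined with compound. Glutathione acceptor and streptavidin donor beads were added, then incubated 30 min at room temperature in the dark. Read-out was AlphaScreen signal.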
(In general: In Alpha technology, singlet oxygen from a donor bead excites a nearby acceptor bead.)

Experiment [2] relates to acute myelogenous leukemia cells (MV-4-11 cells). Nature of the experiment: Cytotoxicity to acute myelogenous leukemia cells (MV-4-11 cells), CCK-8. To be noted: Homo sapiens, MV4-11, 72 h.
[3] abbreviates: GST-BRD4 (BD1+BD2) / biotinylated acetyl-histone H4 (Lys5,8,12,16) peptide, read-out: IC50, BRD4 binding inhibition.
The mark [4] stands for this setting: GST-BRD4 (BD1+BD2) vs biotinylated acetyl-histone H4 peptide, AlphaScreen, read-out: BRD4 IC50.
Where [5] appears, read: read-out: MV-4-11 Cytotoxicity IC50.
[6] abbreviates: read-out: IC50, cytotoxicity against acute myelogenous leukemia cells.

`COCCOc1ccc2c(c1)nc(NCCCCNC(=O)C(NC(=O)OC(C)(C)C)C(C)C)c1nnc(C)n12` (stereo not shown) [Example 396, (1-{4-[7-(2-methoxy-ethoxy)-1-methyl-[1,2,4]triazolo[4,3-a]quinoxaline-4-ylamino]-butylcarbamoyl}-2-methyl-propyl)-carbamic acid-tert-butylester]: the IC50 was not above 10 nM in experiment [1] (setting [3]), 7 nM in experiment [1] (setting [4]) and 760 nM in experiment [2] (setting [5]).
For `COCCOc1ccc2c(c1)nc(NCCCCNC(=O)[C@@H](NC(=O)OCC(C)C)C(C)C)c1nnc(C)n12` [Example 398, (S)-(1-{4-[7-(2-methoxy-ethoxy)-1-methyl-[1,2,4]triazolo[4,3-a]quinoxaline-4-ylamino]-butylcarbamoyl}-2-methyl-propyl)-carbamic acid isobutylester], in that order: not above 10 nM, 1 nM and 790 nM.
As to `CCCOC(=O)N[C@H](C(=O)NCCCCNc1nc2cc(OCCOC)ccc2n2c(C)nnc12)C(C)C` [Example 399, (S)-(1-{4-[7-(2-methoxy-ethoxy)-1-methyl-[1,2,4]triazolo[4,3-a]quinoxaline-4-ylamino]-butylcarbamoyl}-2-methyl-propyl)-carbamic acid propylester], the values for the IC50 in experiment [1] (setting [3]), in experiment [1] (setting [4]) and in experiment [2] (setting [5]) were not above 10 nM, 1 nM and 570 nM, respectively.
For `COCCOc1ccc2c(c1)nc(NCCCCNC(=O)[C@@H](NC(=O)OC(C)C)C(C)C)c1nnc(C)n12` [Example 400, (S)-(1-{4-[7-(2-methoxy-ethoxy)-1-methyl-[1,2,4]triazolo[4,3-a]quinoxaline-4-ylamino]-butylcarbamoyl}-2-methyl-propyl)-carbamic acid isopropylester], in that order: not above 10 nM, 1 nM and 200 nM.
Regarding `COCCOc1ccc2c(c1)nc(NCCCCNC(=O)Cc1cccs1)c1nnc(C)n12` [Example 406, N-{4-[7-(2-methoxy-ethoxy)-1-methyl-[1,2,4]triazolo[4,3-a]quinoxaline-4-ylamino]-butyl}-2-thiophene-2-yl-acetamide], the IC50 in experiment [1] (setting [3]) is not above 50 nM; in experiment [1] (setting [4]), 14 nM; in experiment [2] (setting [6]) it was not above 200 nM; in experiment [2] (setting [5]), 19 nM.
For `COCCOc1ccc2c(c1)nc(NCCCCNC(=O)Cc1ccco1)c1nnc(C)n12` [Example 407, 2-furan-2-yl-N-{4-[7-(2-methoxy-ethoxy)-1-methyl-[1,2,4]triazolo[4,3-a]quinoxaline-4-ylamino]-butyl}-acetamide], the IC50 in experiment [1] (setting [3]) is not above 10 nM; in experiment [1] (setting [4]) it was 7 nM; in experiment [2] (setting [5]), 180 nM.
With `COCCOc1ccc2c(c1)nc(NCCCCNC(=O)c1ccccc1)c1nnc(C)n12` [Example 408, N-{4-[7-(2-methoxy-ethoxy)-1-methyl-[1,2,4]triazolo[4,3-a]quinoxaline-4-ylamino]-butyl}-benzamide], the IC50 in experiment [1] (setting [3]) was not above 50 nM; in experiment [1] (setting [4]), 13 nM; in experiment [2] (setting [5]), 620 nM.
On to `COCCOc1ccc2c(c1)nc(NCCCCNC(=O)c1ccccc1F)c1nnc(C)n12` [Example 409, 2-fluoro-N-{4-[7-(2-methoxy-ethoxy)-1-methyl-[1,2,4]triazolo[4,3-a]quinoxaline-4-ylamino]-butyl}-benzamide], for which the IC50 was not above 10 nM in experiment [1] (setting [3]), 9 nM in experiment [1] (setting [4]) and 380 nM in experiment [2] (setting [5]).
For `COCCOc1ccc2c(c1)nc(NCCCCNC(=O)c1cccc(F)c1)c1nnc(C)n12` [Example 410, 3-fluoro-N-{4-[7-(2-methoxy-ethoxy)-1-methyl-[1,2,4]triazolo[4,3-a]quinoxaline-4-ylamino]-butyl}-benzamide], in that order: not above 50 nM, 12 nM and 790 nM.
Regarding `COCCOc1ccc2c(c1)nc(NCCCCNC(=O)c1ccccc1Cl)c1nnc(C)n12` [Example 411, 2-chloro-N-{4-[7-(2-methoxy-ethoxy)-1-methyl-[1,2,4]triazolo[4,3-a]quinoxaline-4-ylamino]-butyl}-benzamide], the IC50 in experiment [1] (setting [3]) is not above 50 nM; in experiment [1] (setting [4]), 19 nM; in experiment [2] (setting [6]), not above 200 nM; in experiment [2] (setting [5]), 150 nM.
With `COCCOc1ccc2c(c1)nc(NCCCCNC(=O)c1cccc(Cl)c1Cl)c1nnc(C)n12` [Example 413, 2,3-dichloro-N-{4-[7-(2-methoxy-ethoxy)-1-methyl-[1,2,4]triazolo[4,3-a]quinoxaline-4-ylamino]-butyl}-benzamide], the results for the IC50 in experiment [1] (setting [3]) and in experiment [2] (setting [5]) were not above 10 nM and 190 nM, respectively.
`COCCOc1ccc2c(c1)nc(NCCCCNC(=O)c1ccccc1OC)c1nnc(C)n12` [Example 414, 2-methoxy-N-{4-[7-(2-methoxy-ethoxy)-1-methyl-[1,2,4]triazolo[4,3-a]quinoxaline-4-ylamino]-butyl}-benzamide]: the values for the IC50 in experiment [1] (setting [3]), in experiment [1] (setting [4]) and in experiment [2] (setting [5]) were not above 50 nM, 16 nM and 630 nM, respectively.
With `COCCOc1ccc2c(c1)nc(NCCCCNC(=O)Cc1ccccc1)c1nnc(C)n12` [Example 420, N-{4-[7-(2-methoxy-ethoxy)-1-methyl-[1,2,4]triazolo[4,3-a]quinoxaline-4-ylamino]-butyl}-2-phenyl-acetamide], the half-maximal inhibitory concentration (IC50) in experiment [1] (setting [3]) is not above 10 nM; in experiment [1] (setting [4]), 2 nM; in experiment [2] (setting [6]), not above 200 nM; in experiment [2] (setting [5]), 180 nM.
For `COCCOc1ccc2c(c1)nc(NCCCCNC(=O)NC(C)C)c1nnc(C)n12` [Example 422, 1-isopropyl-3-{4-[7-(2-methoxy-ethoxy)-1-methyl-[1,2,4]triazolo[4,3-a]quinoxaline-4-ylamino]-butyl}-urea], the IC50 is not above 10 nM in experiment [1] (setting [3]), 3 nM in experiment [1] (setting [4]) and 450 nM in experiment [2] (setting [5]).
On to `COCCOc1ccc2c(c1)nc(NCCCCNC(=O)NC1CCCCC1)c1nnc(C)n12` [Example 426, 1-cyclohexyl-3-{4-[7-(2-methoxy-ethoxy)-1-methyl-[1,2,4]triazolo[4,3-a]quinoxaline-4-ylamino]-butyl}-urea], for which the 50% inhibitory concentration (IC50) in experiment [1] (setting [3]) was not above 50 nM; in experiment [1] (setting [4]), 17 nM; in experiment [2] (setting [6]), not above 200 nM; in experiment [2] (setting [5]) it was 190 nM.
For `Cc1nnc2c(NCCCCNC(=O)OC(C)(C)C)nc3cc(OCCN4CCOCC4)ccc3n12` [Example 430, {4-[1-methyl-7-(2-morpholine-4-yl-ethoxy)-[1,2,4]triazolo[4,3-a]quinoxaline-4-ylamino]-butyl}-carbamic acid-tert-butylester], the IC50 was not above 50 nM in experiment [1] (setting [3]), 22 nM in experiment [1] (setting [4]) and 600 nM in experiment [2] (setting [5]).
As for `Cc1nnc2c(NCCCCNC(=O)CC(C)C)nc3cc(OCCN4CCOCC4)ccc3n12` [Example 432, 3-methyl-N-{4-[1-methyl-7-(2-morpholine-4-yl-ethoxy)-[1,2,4]triazolo[4,3-a]quinoxaline-4-ylamino]-butyl}-butyramide], the IC50 in experiment [1] (setting [3]) is not above 50 nM; in experiment [1] (setting [4]) it was 50 nM; in experiment [2] (setting [6]) it was not above 200 nM; in experiment [2] (setting [5]) it was 100 nM.
`Cc1nnc2c(NCCCCNC(=O)C(C)(C)C)nc3cc(OCCN4CCOCC4)ccc3n12` [Example 433, 2,2-dimethyl-N-{4-[1-methyl-7-(2-morpholine-4-yl-ethoxy)-[1,2,4]triazolo[4,3-a]quinoxaline-4-ylamino]-butyl}-propionamide]: the IC50 in experiment [1] (setting [4]) was 61 nM; in experiment [2] (setting [5]) it was 340 nM.
For the compound `Cc1nnc2c(NCCCCNC(=O)[C@@H](O)C(C)C)nc3cc(OCCN4CCOCC4)ccc3n12` [Example 435, 2-(S)-hydroxy-N-{4-[7-(2-morpholine-4-yl-ethoxy)-1-methyl-[1,2,4]triazolo[4,3-a]quinoxaline-4-ylamino]-butyl}-3-methyl-butyramide], the IC50 in experiment [1] (setting [3]) was not above 10 nM; in experiment [1] (setting [4]), 8 nM; in experiment [2] (setting [5]) it was 110 nM.
On to `Cc1nnc2c(NCCCCNC(=O)OC(C)C)nc3cc(OCCN4CCOCC4)ccc3n12` [Example 436, {4-[1-methyl-7-(2-morpholine-4-yl-ethoxy)-[1,2,4]triazolo[4,3-a]quinoxaline-4-ylamino]-butyl}-carbamic acid isopropylester], for which the IC50 in experiment [1] (setting [3]) is not above 50 nM; in experiment [1] (setting [4]), 18 nM; in experiment [2] (setting [6]), not above 200 nM; in experiment [2] (setting [5]), 160 nM.
For `Cc1nnc2c(NCCCCNC(=O)OC3CCCC3)nc3cc(OCCN4CCOCC4)ccc3n12` [Example 437, {4-[1-methyl-7-(2-morpholine-4-yl-ethoxy)-[1,2,4]triazolo[4,3-a]quinoxaline-4-ylamino]-butyl}-carbamic acid cyclopentylester], in that order: not above 50 nM, 31 nM, not above 200 nM and 70 nM.
With `Cc1nnc2c(NCCCCNC(=O)Cc3cccs3)nc3cc(OCCN4CCOCC4)ccc3n12` [Example 438, N-{4-[1-methyl-7-(2-morpholine-4-yl-ethoxy)-[1,2,4]triazolo[4,3-a]quinoxaline-4-ylamino]-butyl}-2-thiophene-2-yl-acetamide], the half-inhibitory concentration (IC50) in experiment [1] (setting [3]) is not above 50 nM; in experiment [1] (setting [4]), 37 nM; in experiment [2] (setting [6]), not above 200 nM; in experiment [2] (setting [5]), 33 nM.
Turning to `Cc1nnc2c(NCCCCNC(=O)c3ccccc3Cl)nc3cc(OCCN4CCOCC4)ccc3n12` [Example 439, 2-chloro-N-{4-[1-methyl-7-(2-morpholine-4-yl-ethoxy)-[1,2,4]triazolo[4,3-a]quinoxaline-4-ylamino]-butyl}-benzamide], the IC50 in experiment [1] (setting [3]) was not above 50 nM; in experiment [1] (setting [4]) it was 38 nM; in experiment [2] (setting [6]), not above 200 nM; in experiment [2] (setting [5]) it was 100 nM.

In general, IC50 refers to the concentration that inhibits the measured activity by half.
